Assay results as given in ChEMBL document CHEMBL1157539, “Thousands of chemical starting points for antimalarial lead identification” (Nature, 2010).

System: Plasmodium falciparum
Test: GSK_TCMDC: Inhibition of Plasmodium falciparum 3D7 in whole erythrocytes, using parasite LDH activity as an index of growth.
Format: functional, organism-based
Settings: Plasmodium falciparum, 3D7

SMILES	XC50 [nM]
N#Cc1ccc(NC(=O)N2CCCN(CCCCCNC(=O)/C=C/c3ccc(Cl)c(Cl)c3)CC2)cc1	768
Cc1[nH]c(C)c(-c2ccc(CCc3ccc(N)cc3)cc2)c(=O)c1Cl	98.5
O=C(Nc1cccc(C(F)(F)F)c1)Nc1ccc2nonc2c1	849
CC(C)CNCc1cccc(-c2cccc(CN(CCCN3CCN(C)CC3)C(=O)CCC3CCCC3)c2)c1	624
NC1=NC(c2ccccc2)(c2ccccn2)C(=O)N1CCCc1ccccc1 (centres undefined)	1040
COc1ccc(-c2ccc(NC(=O)c3ccc(Cl)cc3)cc2)cc1CN1CCC(O)CC1	1090
CCNc1cc(C(=O)N[C@@H](Cc2ccccc2)[C@H](O)CNC(C)(C)CCCC(C)C)cc(N2CCCC2=O)c1	827
N#Cc1c(F)cc(N2CCC(NCC[C@H](N)Cc3ccc(F)c(F)c3)CC2)cc1F	857
CC(Cc1ccc(OCc2ccc(CCN(C)C)cc2)cc1)NCCc1cccc(Cl)c1 (centres undefined)	769
CC(Cc1ccc(OCc2ccccc2)c(Cl)c1)NCC(O)c1cccc(C(F)(F)F)c1 (centres undefined)	940
CSc1cccc(Nc2nc3ccc(S(=O)(=O)NC(C)C(C)C)cc3n2[C@H](C)C(C)(C)C)c1 (some centres undefined)	446
O=C(/C=C/c1ccc(Cl)c(Cl)c1)NCCCCCN1CCC(NC(=O)Nc2ccccc2Cl)CC1	714
COc1ccc(-c2ccc(NC(=O)c3ccc(C#N)cc3)cc2)cc1CN1CCC(O)CC1	581
Cc1cnccc1/C=C/c1cccc(OCCCN2CCc3ccc(S(C)(=O)=O)cc3CC2)c1	615
CC[C@H](C)CNC(=O)c1ccnc(-c2ccc(CNC3Cc4ccccc4C3)cc2)c1	569
Cc1cc(C(=O)Nc2ccc3c(c2)CCN3C2CCN(Cc3ccc(F)cc3Cl)C2)no1 (centres undefined)	189
NC(=O)c1cccc(Nc2nccc(Nc3ccc(Oc4ccc5ccccc5c4)cc3)n2)c1	810
CCCCN1CCN(c2cc(NS(=O)(=O)c3ccc(C(=O)Nc4ccc(C(F)(F)F)cc4)cc3)ccc2OC)CC1	664
FC(F)(F)c1cnc(Sc2nnc(-c3ccncc3)o2)c(Cl)c1	272
Cc1cc(N[C@@H](Cc2ccccc2)C(=O)NCc2cccc(F)c2)nc(NCCOc2ccccc2)n1	786
CCN(CC)CCN(Cc1ccc(-c2ccc(C(F)(F)F)cc2)cc1)C(=O)Cn1c(CCc2cccc(F)c2F)nc(=O)c2cc(C)ccc21	936
CCc1ccc(NC(=O)N(CCCn2ccnc2)Cc2csc(-c3ccc(CNCc4ccccc4)cc3)n2)cc1	757
FC(F)(F)c1ccc(NC(=S)N2CCC(CCN3CCC(c4c[nH]c5ccccc45)CC3)CC2)cc1	885
CCCCCCCc1[nH]c2ccccc2c(=O)c1C	509
COc1cc2nc(NCC3CCCCC3)nc(NCc3ccccc3)c2cc1OC	142

SMILES	XC50 [nM]
COc1cc(Cc2cnc(N)nc2N)cc(OCCCC#N)c1OC	1030
O=C(NCCCCN1CCC(c2cccc3ccccc23)CC1)c1ccc(-c2ccc(C(F)(F)F)cn2)cc1	867
COc1ccc(C2=[N+]([O-])c3ccccc3C2=O)cc1	783
CCN(CC)CCN(Cc1ccc(-c2ccc(C(F)(F)F)cc2)cc1)C(=O)c1c[nH]c2ccc(Br)cc12	953
COc1ccc(CCC(C)(C)NCC(O)c2cccc(C(F)(F)F)c2)cc1 (centres undefined)	480
CCCC(C)c1cnc2nc(N)nc(N)c2c1C (centres undefined)	28.4
CN1CCC[C@H]1COc1ccc(CN2CC[C@H](NC(=O)c3ccc(Cl)c(Cl)c3)C2)cc1Br	983
COc1cc2c(c(Cl)c1OC)CCN(Cc1ccccc1)CC2c1ccc(C(N)=O)cc1 (centres undefined)	848
Cc1ccc(NC(=O)c2ccc(NCCCN3CC(C)CC(C)C3)c([N+](=O)[O-])c2)cc1F (centres undefined)	711
COC(=O)c1ccc(CN2CCC(N(Cc3cccc(Oc4ccccc4)c3)S(=O)(=O)c3ccc(NC(C)=O)cc3)CC2)cc1	1050
CO/C(=C\C=C\c1cc2cc(Cl)c(Cl)cc2[nH]1)C(=O)NCCCN1CCCC[C@@H]1C	755
CC(CO)(CO)NCc1cc2c3ccccc3c(CNC(C)(CO)CO)cc2c2ccccc12	723
CCC(C)(C)C1CCc2nc(N)nc(N)c2C1 (centres undefined)	6.38
O=C(Nc1ccc(CC(=O)N2CCc3cc(Cl)c(N4CCN(C/C=C/c5ccccc5)CC4)cc32)cc1)Nc1cccc([N+](=O)[O-])c1	761
Fc1cccc(CNc2ncc(-c3ccsc3)c(-c3nccs3)n2)c1	238
CCCC1N=C(N)N=C(N)N1c1ccc(C)cc1 (centres undefined)	95.2
Cc1nc2ccc3nc(NC(=O)c4ccno4)sc3c2s1	656
CCCCNc1nccc2ccc(-c3ccncc3)cc12	775
CN(C)CCNc1ncnc2c1[nH]c1ccc(Cl)cc12	601
N#Cc1ccc(CN2CCCN(Cc3cccc(NC(=O)c4ccc(Cl)c(Cl)c4)c3)CC2)cc1	850
O=C(Nc1cccc([N+](=O)[O-])c1)Nc1ccc(Cl)c(C(F)(F)F)c1	1120
NC(=O)c1cccc(Nc2nccc(Nc3ccc(Oc4c(Cl)cccc4Cl)c(Cl)c3)n2)c1	871
CCOc1c(Cl)cc(Cl)cc1CNCCCNc1nc2ccccc2[nH]1	831
CC1(C)NC(N)=NC(=N)N1OCC1CCCCC1	3.2
COCC(=O)N(Cc1ccccc1-c1cccc(CNCCc2ccccc2)c1)C1CCN(Cc2ccccc2)CC1	1100

SMILES	XC50 [nM]
C=CCc1cc(SC)ccc1Oc1ccc(N)cc1	742
O=C(c1ccc(Cl)cc1)C1CCCN(C2CCN(CCc3ccccc3)CC2)C1 (centres undefined)	1450
CCOC(=O)CNC(=O)c1cc(=O)c2ccccc2o1	210
CN(C)c1ccc(-c2csc(C(=O)NCC3CCN(CC4CCCCC4)C3)c2)cc1 (centres undefined)	1140
Nc1cccc(CNCc2cccc(-c3ccc(-c4nc5ccccc5[nH]4)s3)c2)c1	604
COc1c(O)cc2oc(-c3ccc(O)cc3)cc(=O)c2c1O [HISPIDULIN]	771
CN(C)CCOc1ccc2nc(-c3cccc(OCc4ccccc4)c3)[nH]c2c1C#N	256
O=C(/C=C/c1ccc(Cl)c(Cl)c1)N1CCC(CN2CCC(c3c[nH]c4ccc(O)cc34)CC2)CC1	776
CC1(C)N=C(N)N=C(N)N1OCc1ccc2c(c1)OCO2	3.68
COc1cccc(C=NN=c2cc(C)[nH]c3ccccc23)c1	937
c1ccc2c(c1)cc(CNCCCN1CCN(CCCNCc3cc4ccccc4c4ccccc34)CC1)c1ccccc12	204
COc1ccc2[nH]c(C)cc(=NN=Cc3cc(C)ccc3O)c2c1	143
CCCC(C)NC(=O)[C@H]1CNCCN1C(=O)CCCc1ccccc1 (some centres undefined)	186
COc1ccc(CNCc2ccc(F)cc2)cc1-c1ccc(S(=O)(=O)NCCN2CCCC2)c(C)c1	734
O=C(Nc1cccc(C(F)(F)F)c1)c1cccc2nc(C(F)(F)F)[nH]c12	644
CN(C)c1ccc(-c2csc(C(=O)NCC3CCN(CCC(C)(C)C)C3)c2)cc1 (centres undefined)	1500
Cc1cc(Nc2cccc(C(F)(F)F)c2)nc(Nc2cccc(C(F)(F)F)c2)n1	644
O=C(Nc1ccc(F)c(F)c1)c1ccc(CN2CCCN(Cc3cccc(O)c3)CC2)cc1	836
CCC(C)CC(=O)Nc1ccc(OC)c(S(=O)(=O)N[C@@H]2CCN(C#N)C2)c1 (some centres undefined)	1490
CNC(=O)C1Cc2c([nH]c3ccc(Br)cc23)C2(CCN(CCc3ccccc3)CC2)N1 (centres undefined)	919
COc1ccc2nccc([C@@H](O)CN3CCC(NC(=O)C(c4cc5ccccc5o4)N4CCN(c5ccccc5)CC4)CC3)c2c1 (some centres undefined)	238
COC(=O)CN(C(=O)/C=C/c1ccc(Cl)c(Cl)c1)C1CCC(CN2CCC(c3c[nH]c4ccccc34)CC2)CC1 (centres undefined)	507
CCC(C)(C)c1ccc(OCCCC(=O)Nc2ccc(Cl)c([N+](=O)[O-])c2)c(C(C)(C)CC)c1	969
CC[C@H]1CN2CCc3c([nH]c4ccccc34)[C@@H]2C[C@@H]1CC1c2cc(OC)c(OC)cc2CCN1C (some centres undefined)	1090
CC(Cc1ccc([N+](=O)[O-])cc1)NCC(O)c1cccc(C(F)(F)F)c1 (centres undefined)	898

SMILES	XC50 [nM]
O=C(/C=C/c1ccc(Cl)c(Cl)c1)N1CCC(CN2CCC(c3c[nH]c4cnccc34)CC2)CC1	219
O=C(NC1CC1)c1ccc(N2CCCC(COc3ccc4c(c3)CCCC4)C2)nc1 (centres undefined)	1080
COc1ccc2nccc([C@@H](O)CN3CCC(NC(=O)c4ccc(Cl)c([N+](=O)[O-])c4)CC3)c2c1	954
CC(Cc1ccc(SC(C)(C)C)cc1)NCC(O)c1cccc(Cl)c1 (centres undefined)	317
COc1ccc(-c2nc(NC(=O)CSc3ccc([N+](=O)[O-])cc3)sc2C)cc1	136
CCCc1cc(Cc2cnc(N)nc2N)ccc1OCCCCCC(=O)O	577
CS(=O)(=O)CCOCc1ccc(-c2ccc3ncnc(Nc4ccc(OCc5cccc(F)c5)c(Cl)c4)c3c2)o1	803
CC(CCc1ccccc1)NCC(O)c1cccc([N+](=O)[O-])c1 (centres undefined)	858
CCCCCCN1CCN(Cc2cccc(NC(=O)c3cccc(OCC)c3)c2)CC1	1110
Cc1cc(=O)[nH]c(-n2nc(C)cc2NC(=O)C2(c3ccc(Cl)cc3)CCCC2)n1	288
CC(=O)Nc1ccc2[nH]cc(C3CCN(CC4CCC(NC(=O)/C=C/c5ccc(Cl)c(Cl)c5)CC4)CC3)c2n1 (centres undefined)	263
CN1CCN(CC(=O)Nc2cccc(-c3cccc(-c4nc5ccccc5[nH]4)c3)c2)CC1	1290
FC(F)(F)c1ccc2[nH]c(-c3ccc(-c4cccc(CNCc5ccccc5)c4)s3)nc2c1	153
O=C(O)c1cccnc1Sc1ccc(Cl)cc1	830
O=C(Nc1ccc(Cl)cc1)c1ccc(CN2CCCN(Cc3ccsc3)CC2)cc1	862
Nc1c(Cl)cc(C(O)CNCCCCCCOCCC=C2CCOCC2)cc1Cl (centres undefined)	634
Cc1cc(NC(=O)c2ccco2)ccc1OC1CCN(Cc2ccc(F)cc2)C1 (centres undefined)	644
Cn1c2ccccc2c2c3ccccc3c(CNC(CO)(CO)CO)cc21	518
CC(=O)Nc1ncc(C(=O)Nc2cccc(-c3cccc(-c4nc5cccc(C)c5[nH]4)c3)c2)s1	354
CCCCCC(C)C(C)c1cc(O)c2c(c1)OC(C)(C)CC2(O)c1ccnn1C (centres undefined)	964
CCc1c[nH]c2c(N(c3ccccc3)S(C)(=O)=O)cc(C(=O)N[C@@H](Cc3ccccc3)[C@H](O)CNC(C)(C)CCCC(C)C)cc12	823
O=C(Nc1ccc(-c2nc3ccc(NC(=O)c4ccc(Br)cc4)cc3[nH]2)cc1)c1ccc(Br)cc1	786
O=C(Oc1ccc(Cl)cc1C(=O)Nc1ccc([N+](=O)[O-])cc1Cl)c1ccccc1	912
COc1cccc2c(NN=Cc3ccccc3F)ccnc12	941
